Source: ChEMBL document CHEMBL1132525, “Indolocarbazole poisons of human topoisomerase I: regioisomeric analogues of ED-110” (Bioorg Med Chem Lett, 1999)

Assays:
[1] = tested on: DU-145; assay: In vitro antitumor activity against human solid tumor prostate cell line DU-145; assay type: functional, cell-based
[2] = tested on: HT-29; assay: In vitro antitumor activity against human solid tumor colon cell line HT-29; assay type: functional, cell-based
[3] = target: T1, DNA topoisomerase 1 (Homo sapiens, UniProt P11387); assay: Concentration required to inhibit human DNA topoisomerase I (Topo I)
T1 sequence (P11387 whole entry): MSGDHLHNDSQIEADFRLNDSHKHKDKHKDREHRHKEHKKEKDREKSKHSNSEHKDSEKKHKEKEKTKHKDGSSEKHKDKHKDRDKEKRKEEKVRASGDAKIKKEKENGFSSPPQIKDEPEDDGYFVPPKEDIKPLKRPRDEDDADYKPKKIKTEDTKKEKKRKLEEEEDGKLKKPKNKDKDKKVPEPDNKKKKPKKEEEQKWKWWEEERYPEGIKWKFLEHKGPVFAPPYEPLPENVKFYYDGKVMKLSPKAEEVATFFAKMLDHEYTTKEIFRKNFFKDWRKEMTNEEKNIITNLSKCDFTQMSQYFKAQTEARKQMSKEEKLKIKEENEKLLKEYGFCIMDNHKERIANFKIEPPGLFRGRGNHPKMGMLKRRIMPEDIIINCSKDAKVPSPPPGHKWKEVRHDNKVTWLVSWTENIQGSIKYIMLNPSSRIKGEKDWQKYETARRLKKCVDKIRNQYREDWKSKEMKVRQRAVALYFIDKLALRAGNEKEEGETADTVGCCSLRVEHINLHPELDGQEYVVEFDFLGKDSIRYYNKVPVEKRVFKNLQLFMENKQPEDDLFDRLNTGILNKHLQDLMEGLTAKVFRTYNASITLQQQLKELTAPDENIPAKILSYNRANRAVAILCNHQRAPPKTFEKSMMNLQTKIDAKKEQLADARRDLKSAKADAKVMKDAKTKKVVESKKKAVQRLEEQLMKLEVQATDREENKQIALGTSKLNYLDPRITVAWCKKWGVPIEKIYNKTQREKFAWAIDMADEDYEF

[4] = tested on: OVCAR-3; assay: In vitro antitumor activity against human solid tumor ovarian cell line OVCAR-3; assay type: functional, cell-based
[5] = tested on: OVCAR-3; assay: In vitro antitumor activity against human solid tumor ovarian cell line OVCAR-3; No active; assay type: functional, cell-based
[6] = tested on: HT-29; assay: In vitro antitumor activity against human solid tumor colon cell line HT-29; No active; assay type: functional, cell-based
[7] = tested on: DU-145; assay: In vitro antitumor activity against human solid tumor prostate cell line DU-145; No active; assay type: functional, cell-based

| IC50 [1] [nM] | IC50 [2] [nM] | IC50 [3] [nM] | IC50 [4] [nM] | IC50 [5] | IC50 [6] | IC50 [7] | Structure (SMILES) |
| --- | --- | --- | --- | --- | --- | --- | --- |
| 2300 | > 10000 | 13000 | 920 |  |  |  | O=C1NC(=O)c2c1c1c3cccc(O)c3[nH]c1c1c2c2cccc(O)c2n1C1OC(CO)C(O)C(O)C1O (centres undefined) |
| 120 | 9700 | 2300 | 190 |  |  |  | O=C1NC(=O)c2c1c1c3ccc(O)cc3[nH]c1c1c2c2ccc(O)cc2n1C1OC(CO)C(O)C(O)C1O (centres undefined) |
|  |  |  |  | Not Active | Not Active | Not Active | O=C1NC(=O)C(c2cn(C3OC(CO)C(O)C(O)C3O)c3c(O)cccc23)=C1c1c[nH]c2c(O)cccc12 (centres undefined) |
| 67 | 840 | 1500 | 190 |  |  |  | O=C1NC(=O)c2c1c1c3cc(O)ccc3[nH]c1c1c2c2cc(O)ccc2n1C1OC(CO)C(O)C(O)C1O (centres undefined) |
| 950 | 1300 | 36000 | 440 |  |  |  | O=C1NC(=O)c2c1c1c([nH]c3cccc(O)c31)c1c2c2c(O)cccc2n1C1OC(CO)C(O)C(O)C1O (centres undefined) |
